Reference: article PMC9284121, “Florfenicol-Polyarginine Conjugates Exhibit Promising Antibacterial Activity Against Resistant Strains” (Frontiers in Chemistry, 2022)
Converted amounts (≈) assume the structure as drawn. Read-outs that look alike come from different tables or passages of the source.

Tests used:
[1] = test system: E. coli; test: Propensity of bacterial resistance development (serial passage at 0.5 MIC); type: cell-based, Escherichia coli
Experimental: It is crucial to evaluate the potential emergence of resistance from these compounds. […] The process was repeated for 16 passages. […] However, E. coli became resistant to FFC after only a few days. Therefore, these conjugates can be to combat drug-resistant bacteria.
Compound E6 was used to evaluate the tendency of developing bacterial resistance towards the florfenicol-polyarginine conjugates. The control antibiotic florfenicol was chosen for E. coli. MIC of E6 and florfenicol for 24 h were determined against E. coli., and then 0.5 MIC of E6 and florfenicol was challenged repeatedly against E. coli. After the initial MIC experiment, serial passage was investigated by transferring the growing bacterial suspension at sub-MIC of the compounds (MIC/2) and MIC in every passage was determined again. The process was repeated for 16 passages. The MICs for E6 and florfenicol corresponding to days were draw into figure to determine the propensity of bacterial resistance development.

[2] = test system: MRSA (ATCC 43300); test: microbe, parasite or virus in culture; type: cell-based, methicillin-resistant S. aureus
Experimental: (§1) All the florfenicol-polyarginine conjugates were tested against Gram-positive and Gram-negative bacteria, including MRSA (ATCC 43300), S. aureus (ATCC 25923), E. coli (ATCC 25922), clinical strains of E. coli (2019XJ06, 2019XJ25, 2018XJ108, 2018XJ105, 2018XJ30) and clinical strains of florfenicol resistant E. coli (2017XJ30, 2019XJ20).
(§2) Gram-negative E. coli (ATCC 25922), clinical strains of E. coli (2019XJ06, 2019XJ25, 2018XJ108, 2018XJ105, 2018XJ30) and clinical strains of florfenicol resistant E. coli (2017XJ30, 2019XJ20) and Gram-positive MRSA (ATCC 43300) and S. aureus (ATCC 25923) were maintained in 50% glycerol at −80°C up to the time of use. The bacterial strains were cultured in Muller-Hinton broth (Guangdong Huan Kai Microbial Sci. &Tech. Co., Ltd. in China) media. Mueller-Hinton agar (Guangdong Huan Kai Microbial Sci. & Tech. Co., Ltd. in China) was used as growth medium in solid media.
(§3) CLSI guidelines were followed for determining MICs of all florfenicol-polyarginine conjugates by the broth microdilution method. The required bacterial (E. coli, S. aureus and MRSA) single colony was inoculated into Muller-Hinton broth (MHB) and cultured for 4–6 h. And then, the bacteria were adjusted to 10^6 CFU/ml in cultures. All compounds were prepared into a stock solution at a concentration of 0.1 mol/L with DMSO. The stock solutions were then diluted to required concentration (100, 50, 25, 12.5, 6.25, 3.125, 1.56, 0.78, 0.39 μmol/L) with MHB media. Subsequently, a 96 well plate was filled with these dilutions and 10^6 CFU/ml bacterial suspension. The diluted compounds of different concentrations (100 µl) were first added to 96 well plate, and then 100 µl bacterial dilutions (10^6 CFU/ml) was added. The negative and positive controls were 200 µl of MHB media and 100 µl of bacterial suspension combined with 100 µl of MHB media, respectively. The experiment of each compound was repeated three times, and each experiment was at least twice repeated. The 96 well plates were incubated at 37°C for 16–24 h. MIC indicated antibacterial activity. Florfenicol was used as a control drug.

[3] = test system: S. aureus (ATCC 292130); test: microbe, parasite or virus in culture; type: cell-based, Staphylococcus aureus
[4] = test system: E. coli clinical strain 2019XJ25; test: microbe, parasite or virus in culture; type: cell-based, Escherichia coli
Experimental: as §1, §2, §3

[5] = test system: florfenicol resistant E. coli clinical strain 2017XJ30; test: microbe, parasite or virus in culture; type: cell-based, Escherichia coli
Experimental: as §1, §2, §3

[6] = test system: florfenicol resistant E. coli clinical strain 2019XJ20; test: microbe, parasite or virus in culture; type: cell-based, Escherichia coli
Experimental: as §1, §2, §3

[7] = test system: E. coli clinical strain 2019XJ06; test: microbe, parasite or virus in culture; type: cell-based, Escherichia coli
Experimental: as §1, §2, §3

[8] = test system: E.coli (ATCC 25922); test: microbe, parasite or virus in culture; type: cell-based, Escherichia coli
Experimental: as §1, §2, §3

[9] = test system: E. coli clinical strain 2018XJ30; test: microbe, parasite or virus in culture; type: cell-based, Escherichia coli
Experimental: as §1, §2, §3

[10] = test system: E. coli clinical strain 2018XJ105; test: microbe, parasite or virus in culture; type: cell-based, Escherichia coli
Experimental: as §1, §2, §3

[11] = test system: E. coli clinical strain 2018XJ108; test: microbe, parasite or virus in culture; type: cell-based, Escherichia coli
Experimental: as §1, §2, §3

[12] = test system: 10 strains tested (E. coli, S. aureus, MRSA, clinical E. coli strains); test: microbe, parasite or virus in culture; type: cell-based
Experimental: as §1, §2, §3

Compound: CS(=O)(=O)c1ccc([C@@H](O)[C@@H](CF)NC(=O)C(Cl)Cl)cc1 [Florfenicol]
- change of MIC after 16 passages [1]: 2 fold
- MIC ([2]; Staphylococcus aureus, MRSA (ATCC 43300), MHB, read-out: MIC): 6.25 µM (≈ 2.24 µg/mL)
- MIC ([3]; Staphylococcus aureus, ATCC292130, S. aureus (ATCC 292130), MHB, read-out: MIC): 6.25 µM (≈ 2.24 µg/mL)
- MIC ([4]; Escherichia coli, clinical E. coli 2019XJ25, MHB, read-out: MIC): 6.25 µM (≈ 2.24 µg/mL)
- MIC ([5]; Escherichia coli, florfenicol resistant E. coli 2017XJ30, MHB, read-out: MIC): > 100 µM
- MIC ([6]; Escherichia coli, florfenicol resistant E. coli 2019XJ20, MHB, read-out: MIC): > 100 µM
- MIC ([7]; Escherichia coli, clinical E. coli 2019XJ06, MHB, read-out: MIC): 6.25 µM (≈ 2.24 µg/mL)
- MIC ([8]; Escherichia coli, ATCC25922, E.coli (ATCC 25922), MHB, read-out: MIC): 6.25 µM (≈ 2.24 µg/mL)
- MIC ([9]; Escherichia coli, clinical E. coli 2018XJ30, MHB, read-out: MIC): 6.25 µM (≈ 2.24 µg/mL)
- MIC ([10]; Escherichia coli, clinical E. coli 2018XJ105, MHB, read-out: MIC): 6.25 µM (≈ 2.24 µg/mL)
- MIC ([11]; Escherichia coli, clinical E. coli 2018XJ108, MHB, read-out: MIC): 6.25 µM (≈ 2.24 µg/mL)

Compound: N=C(N)NCCC[C@H](NC(=O)[C@H](CCCNC(=N)N)NC(=O)[C@H](CCCNC(=N)N)NC(=O)[C@H](CCCNC(=N)N)NC(=O)[C@H](CCCNC(=N)N)NC(=O)[C@H](CCCNC(=N)N)NC(=O)[C@H](CCCNC(=N)N)NC(=O)[C@@H](N)CCCNC(=N)N)C(N)=O [Compound D6]
- MIC ([2]; ATCC 43300): 25 µM (≈ 31.7 µg/mL)
- MIC ([3]; ATCC 292130): 25 µM (≈ 31.7 µg/mL)
- MIC ([4]; clinical strain 2019XJ25): 50 µM (≈ 63.3 µg/mL)
- MIC ([5]; florfenicol resistant clinical strain 2017XJ30): 50 µM (≈ 63.3 µg/mL)
- MIC ([6]; florfenicol resistant clinical strain 2019XJ20): 50 µM (≈ 63.3 µg/mL)
- MIC ([7]; clinical strain 2019XJ06): 50 µM (≈ 63.3 µg/mL)
- MIC ([8]; ATCC 25922): 50 µM (≈ 63.3 µg/mL)
- MIC ([9]; clinical strain 2018XJ30): 50 µM (≈ 63.3 µg/mL)
- MIC ([10]; clinical strain 2018XJ105): 50 µM (≈ 63.3 µg/mL)
- MIC ([11]; clinical strain 2018XJ108): 50 µM (≈ 63.3 µg/mL)
- MIC [12]: 25 to 100 µM
